{"source": "patent US20190022092A1", "about": "“Therapeutic Combinations of a BTK Inhibitor and a GITR Binding Molecule, a 4-1BB Agonist, or an OX40 Agonist” (Acerta Pharma B.V., priority 2015, published 2019)", "key": {"[1]": {"system": "NK cells co-cultured with antibody-coated DHL-4 or HER18 target cells", "assay": "NK cell lytic granule release (CD107a) by flow cytometry", "assay_type": "cell-based, human", "settings": "1 μM; HER18 targets, trastuzumab 10 μg/mL", "text": "Prior to assay, HER18 cells were harvested using trypsin-EDTA, washed with phosphate-buffered saline (PBS) containing 5% serum and viable cells were counted. For culture of primary target cells, peripheral blood from CLL patients was subject to density centrifugation to obtain peripheral blood mononuclear cells (PBMC). Cell preparations were washed and then subject to positive selection of CD5^+CD19^+ CLL cells using magnetic beads (MACS, Miltenyi Biotech). Cell preparations were used fresh after selection. NK cells from CLL patients and healthy volunteers were enriched from peripheral blood collected in sodium citrate anticoagulant tubes and then subject to density centrifugation. Removal of non NK cells was performed using negative selection by MACS separation. […]\nLytic granule release was determined as follows. […] Degranulation was evaluated via by flow cytometery by externalization of CD107a, a protein normally present on the inner leaflet of lytic granules, and gating on NK cells (CD3-CD16^+ lymphocytes). The percentage of CD107a positive NK cells was quantified by comparison with a negative control (isotype control, unstained cells/FMO). Control cultures (NK cells cultured without target cells, or NK, target cell co-cultures in the absence of appropriate monoclonal antibody) were also evaluated; all experiments were performed in triplicate."}, "CLL": {"system": "CLL", "assay": "Clinical study of Formula (2) in CLL (ALC, SPD, PFS, immune cells, apoptosis, chemokines)", "settings": "CLL patients, relative to ibrutinib (Byrd et al. 2013)", "text": "Trendlines are shown for % change in MDSC (monocytic) level and % change in NK cell level."}, "[2]": {"system": "NK cell lysis of primary CLL cells", "assay": "Rituximab ADCC 51Cr release assay, primary autologous CLL targets", "assay_type": "cell-based, human", "settings": "1 μM; E:T 25:1", "source_text": "(§1) Cell culture conditions were as follows. […] The HER18 cells were maintained in DEM supplemented with fetal bovine serum, penicillin-streptomycin and. Prior to assay, HER18 cells were harvested using trypsin-EDTA, washed with phosphate-buffered saline (PBS) containing 5% serum and viable cells were counted. For culture of primary target cells, peripheral blood from CLL patients was subject to density centrifugation to obtain peripheral blood mononuclear cells (PBMC). Cell preparations were washed and then subject to positive selection of CD5^+CD19^+ CLL cells using magnetic beads (MACS, Miltenyi Biotech). Cell preparations were used fresh after selection. NK cells from CLL patients and healthy volunteers were enriched from peripheral blood collected in sodium citrate anticoagulant tubes and then subject to density centrifugation. Removal of non NK cells was performed using negative selection by MACS separation. Freshly isolated NK cells were washed three times, enumerated, and then used immediately for ADCC assays.\nADCC assays were performed as follows. Briefly, target cells (Raji or primary CLL) were labeled by incubation at 37° C. with 100 μCi ^51Cr for 4 hours prior to co-culture with NK cells. […] Supernatants were harvested and ^51Cr release was measured by liquid scintillation counting. […]"}, "ID8 ovarian cancer": {"system": "ID8 ovarian cancer", "assay": "ID8 syngeneic orthotopic ovarian cancer murine model", "assay_type": "in vivo, mice", "settings": "15 mg/kg/BID orally", "source_text": "[…] ovarian cancer models, including the ID8 syngeneic orthotopic ovarian cancer model and other animal models, are described in Fong and Kakar, J. Ovarian Res. 2009, 2, 12; Greenaway, et al., Gynecol. Oncol. 2008, 108, 385-94; Urzua, et al., Tumour Biol. 2005, 26, 236-44; Janat-Amsbury, et al., Anticancer Res. 2006, 26, 3223-28; Janat-Amsbury, et al., Anticancer Res. 2006, 26, 2785-89. […] The results of the study are shown in FIG. 8, FIG. 9, FIG. 10, FIG. 11, FIG. 12, FIG. 13, FIG. 14, and FIG. 15."}, "CXCL12 and CCL2": {"system": "CXCL12 and CCL2", "assay": "Plasma chemokines in treated CLL patients", "assay_type": "in vivo, human", "settings": "CLL patients on treatment"}, "[3]": {"system": "EGFR phosphorylation (p-EGFR Y1069) in A431 cells", "assay": "EGF-induced EGFR phosphorylation in A431 cells (phosphoflow)", "assay_type": "cell-based, human", "method": "Phosphoflow cytometry was performed with p-EGFR (Y1069). MFI values were normalized so that 100% represents the p-EGFR level in stimulated cells without inhibitor, while 0% represents the unstimulated/no drug condition."}, "[4]": {"system": "GPVI platelet aggregation", "assay": "GPVI platelet aggregation studies", "assay_type": "cell-based", "settings": "read-out: IC50, GPVI platelet aggregation"}, "CD8+ T cell": {"system": "CD8+ T cell", "assay": "IFN-γ level measurements for CD8+ T cell function", "assay_type": "cell-based", "settings": "relative to vehicle", "source_text": "FIG. 39 illustrates the results of IFN-γ level measurements for CD8^+ T cell function."}, "[5]": {"assay": "Cardiovascular function study in awake telemeterized dogs", "assay_type": "in vivo", "settings": "male beagle dogs, single doses through 30 mg/kg", "source_text": "(§2) Formula (2) was well tolerated in standard in vivo Good Laboratory Practices (GLP) studies of pharmacologic safety."}, "[6]": {"system": "NK cell lysis of Raji cells", "assay": "Rituximab ADCC 51Cr release assay, Raji targets", "assay_type": "cell-based, human", "settings": "1 μM; NK cells, E:T 25:1", "source_text": "as §1\nADCC assays were performed as follows. Briefly, target cells (Raji or primary CLL) were labeled by incubation at 37° C. with 100 μCi ^51Cr for 4 hours prior to co-culture with NK cells. Cells were washed, enumerated, and then added in triplicate to prepared 96-well plates containing treated NK cells at an effector:target (E:T) ratio of 25:1. […] Cultures were incubated at 37° C. for 4 hours, and then centrifuged. Supernatants were harvested and ^51Cr release was measured by liquid scintillation counting. All experiments were performed in triplicate."}, "[7]": {"system": "CD8+ T cell function (B lymphoblast targets)", "assay": "Cytotoxic T cell (CTL) assay", "assay_type": "cell-based", "settings": "CTL generated 4 days with 500 nM inhibitor", "method": "Without being bound by any theory, CD8^+ T cells have two primary effector functions: (1) produce large amounts of IFN-γ (which activates macrophages), and (2) cytolytic activity. […] The targets were B lymphoblasts from lipopolysaccharide (LPS) treated cultures. The assay was performed by incubating different ratios of effectors:targets for 4 hours."}, "[8]": {"system": "80 known pharmacologic targets (G-protein-coupled receptors, nuclear receptors, proteases, ion channels)", "assay": "Binding assays on 80 known pharmacologic targets at 10 μM", "settings": "screened at 10 μM", "source_text": "as §2"}}, "data": [{"smiles": "CC#CC(=O)N1CCC[C@H]1c1nc(-c2ccc(C(=O)Nc3ccccn3)cc2)c2c(N)nccn12", "note": "[Formula (2), (S)-4-(8-amino-3-(1-(but-2-ynoyl)pyrrolidin-2-yl)imidazo[1,5-a]pyrazin-1-yl)-N-(pyridin-2-yl)benzamide]", "values": [{"measurement": "inhibition of trastuzumab-stimulated NK cell degranulation", "setting": "[1]", "value": "no inhibitory effect"}, {"measurement": "absolute lymphocyte count (ALC)", "setting": "CLL", "value": "much smaller relative increase and much faster decrease in absolute lymphocyte count (ALC)"}, {"measurement": "effect on rituximab-mediated ADCC, primary CLL samples (autologous)", "setting": "[2]", "value": "not inhibited"}, {"measurement": "CD8+ T cells", "setting": "ID8 ovarian cancer", "value": "increase"}, {"measurement": "immunosuppressive B cells, including Bregs", "setting": "ID8 ovarian cancer; tumor-bearing mice", "value": "significant reduction"}, {"measurement": "immunosuppressive tumor-associated lymphocytes", "setting": "ID8 ovarian cancer; tumor-bearing mice", "value": "significant reduction"}, {"measurement": "plasma CCL2 levels", "setting": "CXCL12 and CCL2", "value": "significant decrease"}, {"measurement": "plasma CXCL12 levels", "setting": "CXCL12 and CCL2", "value": "significant decrease"}, {"measurement": "inhibition of in vitro EGFR phosphorylation", "setting": "[3]; 10 μM, A431 human epidermoid cancer cell line", "value": "no inhibition"}, {"measurement": "inhibition at 10 µM", "setting": "[3]; Homo sapiens, A-431, A431 cells, 2 h, EGF 100 ng/mL 5 min", "value": 7, "unit": "%"}, {"measurement": "IC50", "setting": "[4]", "value": 1150, "unit": "nM"}, {"measurement": "CD8+ T cell function as IFN-γ level", "setting": "CD8+ T cell", "value": "no effect on CD8^+ T cell function as measured by IFN-γ level relative to vehicle"}, {"measurement": "body temperature, cardiovascular, ECG (including QT interval) parameters", "setting": "[5]", "value": "no meaningful changes"}, {"measurement": "effect on rituximab-mediated ADCC, Raji cells", "setting": "[6]", "value": "not inhibited"}, {"measurement": "CD8+ T cell function as % cytotoxicity", "setting": "[7]", "value": "no effect"}, {"measurement": "activity in binding assays on 80 known pharmacologic targets", "setting": "[8]", "value": "significant activity only against the A3 adenosine receptor"}]}]}
